Results from patent publication EP0226513A1, “Peptides capable of inhibiting interactions between antigens and lymphocytes T4, products derived therefrom and their applications” (INSTITUT PASTEUR, priority 1985, dated 1987).
Where no end group is shown, it is not given here.

Columns and labels:
[1] = system: interactions entre les macrophages et les lymphocytes auxiliaires (lymphocytes T4) et entre les lymphocytes T4 et les lymphocytes B; assay: In vitro cell interaction tests in the system of FISHER et al (influenza virus); type: cell-based; conditions: individually or in synergy tests
[2] = system: lymphocytes T, lymphocytes B, monocytes; type: cell-based, humain; conditions: result in words; b210: peptides of different length compared, 0,1-10 µg/ml
lymphocytes T = assay: T-lymphocyte proliferation test induced by influenza virus A/Bangkok, fresh cells (tritiated thymidine incorporation); type: cell-based, humain; conditions: result in words
lymphocytes T, monocytes = assay: Proliferation after separate preincubation of purified T lymphocytes and monocytes with peptides or antibodies (synergy of inhibition); type: cell-based, humain; conditions: T lymphocytes preincubated with the labelled substance, monocytes preincubated with "T₄-12"; sub-inhibitory concentrations
Protocol: Les monocytes sont obtenus après adhérence des cellules mononucléées (10⁷ /ml) sur boîte de Pétri (Corning) pendant une heure à 37°C. Ces boîtes de Pétri ont été préalablement incubées à 4°C avec du SVF décomplémenté, durant la nuit. Après avoir récupéré les cellules non adhérentes, les cellules adhérentes sont dé-tachées avec un barreau caoutchouté (rubber policeman) et par un pipettage vigoureux. Après deux lavages, elles sont irradiées à 4000 rads (IBL 137, source CS-137, CEA).
Les monocytes restants sont séparés des cellules non adhérentes par un traitement à la L-méthylleucine ester (5.10⁶ /ml, 5 mM final, Sigma) 40 minutes à tempé-rature ambiante (18). La réaction est arrêtée par addition de sérum AB humain (10 % final et lavages à froid).
Les lymphocytes T et B sont séparés par la technique des rosettes E. Les cellules T étant capables de former des rosettes en présence de globules rouges de mouton sensibilisés à la neuraminidase, après une incubation d'une heure à 0°C. Les cellules formant rosettes (E⁺) seront séparées des cellules ne formant pas rosettes (E⁻ ou B) par sédimentation sur gradient Ficoll-Hypaque. Les globules rouges de mouton sont lysés par choc hypotonique.
d'incubation des populations lymphoïdes purifiées avec les peptides ou des anticorps monoclonaux spécifiques des molé-cules T₄ et HLA-DR ont été effectuées. […]

Row | Compound | capacité d'inhiber in vitro les interactions entre les macrophages et les lymphocytes T4 et entre les lymphocytes T4 et les lymphocytes B [1] | inhibition de la production d'anticorps anti-influenza [2] | inhibition de la prolifération spécifique du virus influenza des lymphocytes T (lymphocytes T) | synergie d'inhibition de la prolifération (lymphocytes T, monocytes)
1 | LRFDSD [XIV, H₂N―――LRFDSD―――OH] | capables | – | – | –
2 | LRFDSDL [DR-7, H₂N-LRFDSDL-OH] | – | puis and intermédiaires | intermédiaires | intermédiaire
3 | CC(C)[C@H](N)C(=O)N[C@@H](CCCNC(=N)N)C(=O)N[C@@H](Cc1ccccc1)C(=O)N[C@@H](CC(=O)O)C(=O)N[C@@H](CO)C(=O)N[C@@H](CC(=O)O)C(=O)O [XIII, H₂N-VRFDSD-OH] | capables | – | – | –
